These results are taken from patent publication US20030207843A1, “Treatment of drug-resistant human immunodeficiency virus infection” (priority 1999, published 2003).

What is called EC50 is the midpoint of the concentration-response curve.

Like-named read-outs stand apart in the source and are kept apart here.

Holding throughout (assay type): cell-based
For assay [1], the system named is HIV-1LAI (wild type, control). Kind of assay: p24 reduction assay in MT-2 cells, wild type virus. As to the method: (§1) Cells. MT-2 cells (AIDS Research and Reference Reagent Program, National Institute of Allergy and Infectious Diseases, National Institutes of Health) were maintained in RPMI 1640 supplemented with 10% fetal bovine serum (FBS; JRH Biosciences, Lenexa, Kans.), 10 mM HEPES buffer, 50 IU/ml penicillin and 50 μg/ml streptomycin.
Viruses. Stock virus was prepared by electroporating (BIO-RAD Gene Pulser®, Hercules, Calif.) MT-2 cells (1.3×10^7 cells) with 5-10 μg of plasmid DNA encoding a proviral clone of HIV-1LAI (see Nguyen, et. al., Antimicrob. Agents Chemother. 38:2409-2414, and Peden, et. al., Virology 185: 661-672.). At peak cytopathic effect (generally 5-7 days post-transfection), culture supernatants were harvested and stored at −80° C. Viral infectivity titers were determined in threefold endpoint dilution assays conducted in MT-2 cells (six wells per dilution). The 50% tissue culture infective dose (TCID50) was calculated using the Reed and Muench equation (see Reed, et. al., Am. J. Hyg. 27:493-496).
Antiviral Susceptibility Assays. The antiviral activity of each compound […], followed by incubation in the presence of three-fold serial drug dilutions (3 wells per dilution) (see Mellors, et. al., Antimicrob. Agents Chemother. 39:1087-1092). Five or seven days after infection, culture supernatants were harvested, lysed with 0.5% triton-X 100 and assayed for p24 antigen concentration using a commercial ELISA assay (DuPont, NEN Products, Wilmington, Del.). The antiviral activity of the compounds is expressed as the IC50, which is the concentration required to inhibit 50% of p24 antigen production. The fold-resistance of a test virus is calculated by dividing the IC50 of the test virus by the IC50 of the HIV-1LAI control virus.
Cultures of MT-2 cells infected with either wild type (xxLAI) or with the drug-resistant strains of HIV-1 listed above were treated with lipid analogs of PFA (B-PFA, MB-PFA, or EB-PFA). The μM concentration required to produce 50% inhibition of replication of the drug-resistant strain of HIV (EC50) was determined as shown in Table 1. Drug effects were measured by assaying p24 (a viral protein) in the culture medium.

In the next assay the test system is HIV-1LAI E89G. Kind of assay: p24 reduction assay in MT-2 cells, E89G. Particulars: Table 7; for EC50: E89G; for Fold-resistance: E89G relative to wild type virus. As to the method:
as §1
(§2) Antiviral Susceptibility Assays. The antiviral activity of each compound was determined by inoculating MT-2 cells with HIV-1LAI at a multiplicity of infection (MOI) of 0.01 TCID50/cell, followed by incubation in the presence of three-fold serial drug dilutions (3 wells per dilution) (see Mellors, et. al., Antimicrob. Agents Chemother. 39:1087-1092). Five or seven days after infection, culture supernatants were harvested, lysed with 0.5% triton-X 100 and assayed for p24 antigen concentration using a commercial ELISA assay (DuPont, NEN Products, Wilmington, Del.). The antiviral activity of the compounds is expressed as the IC50, which is the concentration required to inhibit 50% of p24 antigen production. The fold-resistance of a test virus is calculated by dividing the IC50 of the test virus by the IC50 of the HIV-1LAI control virus.
(§3) Generation of Mutant Recombinant HIV-1. HIV-1 containing the desired mutations were generated by oligonucleotide directed mutagenesis (Altered Sites II, Promega) as previously described (Mellors, et. al., Molecular Pharm. 41:446-451). After mutagenesis, mutant RT was subcloned into the pxxHIV-1LAI cloning vector using the silent XmaI and XbaI restriction sites located at the 5′ and 3′ ends of RT. Clones were DNA sequenced to verify the presence of the desired mutation(s) and electroporated into MT-2 cells as described above to generate infectious mutant recombinant HIV-1.
(§4) Mutant RT was generated via oligonucleotide-directed mutagenesis and ligated into the pXXHIV-1LAI cloning vector. Cloning was facilitated by the presence of two silent restriction sites at the 5′ and 3′ ends (Xma1 and Xba1, respectively) of pXXHIV-1LAI RT. Infectious mutant recombinant HIV-1 was generated by electroporating MT-2 cells with mutated pXXHIV-1LAI clones. The presence of the desired mutations was verified by DNA sequencing.
Invention compounds were also evaluated against a panel of HIV-1LAI derived recombinants resistant to PFA and the PFA invention compounds, as shown in Table 7.

A further assay relates to HIV-1LAI S117T. Kind of assay: p24 reduction assay in MT-2 cells, S117T. As to the method: as §1, §2, §3, §4
DNA sequencing identified two mutations in RT: S117T and L214F.
(§5) Recombinant viruses containing the mutations selected by invention compounds were also evaluated for their susceptibility to AZT, as shown in Table 8.

A further assay deals with HIV-1LAI M164I/L214F. Kind of assay: p24 reduction assay in MT-2 cells, M164I/L214F. As to the method: as §1, §2, §3, §4
DNA sequencing of the RT gene (amino acid (AA) 1 to 350) from MB-PFA resistant virus identified three mutations: V75L, M164I and L214F. Recombinant viruses encoding the V75L, M164I and L214F mutations were constructed and tested for susceptibility to MB-PFA.
as §5

The next assay deals with HIV-1LAI W88G/L214F. The assay can be described thus: p24 reduction assay in MT-2 cells, W88G/L214F. The protocol: as §1, §2, §3, §4
EB-PFA resistant virus was selected a second time after 15 passages. This virus also contained the mutations W88G and L214F.
as §5

Where [2] appears, read: Table 1, HIV-1LAI(control), MOI 0.01, p24, MT-2 cells, read-out: EC50.
Setting [3] is: Table 2, HIV-1LAI(control), MOI 0.05, read-out: EC50.
[4] abbreviates: Table 3, Wild type, mean ± SD, at least three experiments, read-out: EC50.
Setting [5] is: Table 4, HIV-1LAI wild type, mean ± SD, two or three experiments, read-out: EC50.
The mark [6] stands for this setting: Table 5, Wild type, mean ± SD, read-out: EC50.
[7] abbreviates: Table 6, baseline virus HIV-1LAI passage 0, read-out: EC50.

Turning to `O=C(O)P(=O)(O)O` [PFA, phosphonoformate, reference compound], the EC50 is 18300 nM in assay [1] (Human immunodeficiency virus 1, MT2, Table 1, HIV-1LAI(control), MOI 0.01, p24, MT-2 cells, read-out: EC50); 20100 nM in assay [1] (Human immunodeficiency virus 1, MT2, Table 2, HIV-1LAI(control), MOI 0.05, read-out: EC50); 17700 ± 10100 nM in assay [1] (Human immunodeficiency virus 1, MT2, Table 3, Wild type, mean ± SD, at least three experiments, read-out: EC50); 17700 ± 10100 nM in assay [1] (Human immunodeficiency virus 1, MT2, Table 4, HIV-1LAI wild type, mean ± SD, two or three experiments, read-out: EC50); 17700 ± 10100 nM in assay [1] (Human immunodeficiency virus 1, MT2, Table 5, Wild type, mean ± SD, read-out: EC50); 5270 nM in assay [1] (Human immunodeficiency virus 1, MT2, Table 6, baseline virus HIV-1LAI passage 0, read-out: EC50). Moreover, the EC50 in assay [1] (Human immunodeficiency virus 1, MT2, Table 7, Wild type, mean (SD in next grid row), read-out: EC50) was determined as 13100 nM; with HIV-1LAI E89G (Human immunodeficiency virus 1, MT2), 241 µM. The compound also registered a Fold resistance in the assay on HIV-1LAI S117T ({}) of 4.7 fold.
As for `Cc1cn([C@H]2C[C@H](N=[N+]=[N-])[C@@H](CO)O2)c(=O)[nH]c1=O` [AZT, 3′-Azido-3′-deoxythymidine], the EC50 turned out to be 21 ± 8 nM in assay [1] (Human immunodeficiency virus 1, MT2, Table 8, Wild type, mean ± SD, read-out: AZT EC50); 0.008 ± 0.003 µM in the assay on HIV-1LAI M164I/L214F (Human immunodeficiency virus 1, MT2, Table 8, M164I/L214F, read-out: AZT EC50); 0.015 ± 0.015 µM with HIV-1LAI W88G/L214F (Human immunodeficiency virus 1, MT2, Table 8, W88G/L214F, read-out: AZT EC50); 17 ± 7 nM with HIV-1LAI S117T (Human immunodeficiency virus 1, MT2, Table 8, S117T, read-out: AZT EC50). Further, the Fold resistance is 0.4 in the assay on HIV-1LAI M164I/L214F (Table 8, M164I/L214F relative to wild type virus); 0.7 with HIV-1LAI W88G/L214F (Table 8, W88G/L214F relative to wild type virus); 0.8 in the assay with HIV-1LAI S117T (Table 8, S117T relative to wild type virus).
With `CCCCCCCCCCCCCCCCCCOC[C@H](COP(=O)(O)C(=O)O)OC` [MB-PFA, 1-O-octadecyl-2-O-methyl-sn-glycero-3-PFA], the EC50 in assay [1] (setting [2]) was 350 nM; in assay [1] (setting [3]), 1040 nM; in assay [1] (setting [4]), 500 ± 480 nM; in assay [1] (setting [5]) it was 500 ± 480 nM; in assay [1] (setting [6]) it was 500 ± 480 nM; in assay [1] (setting [7]), 70 nM. Moreover, the EC50 in the assay on HIV-1LAI M164I/L214F (Example 6, recombinant virus with M164I and L214F, read-out: EC50) was 8.1 µM; in the assay on HIV-1LAI E89G it was > 30 µM. Besides, in the assay with HIV-1LAI M164I/L214F (Example 6, recombinant virus with M164I and L214F), the Fold resistance is recorded as 9.3 fold. Also, the Fold-resistance entry in the assay with HIV-1LAI E89G is on record as “(>39.0)”.
With `CCCCCCCCCCCCCCCCCCOC[C@@H](O)COP(=O)(O)C(=O)O` [B-PFA, 1-O-octadecyl-sn-glycero-3-PFA], the EC50 in assay [1] (setting [2]) was 1900 nM; in assay [1] (setting [3]), 3010 nM; in assay [1] (setting [4]), 1790 ± 810 nM; in assay [1] (setting [5]) it was 1800 ± 810 nM; in assay [1] (setting [6]) it was 1790 ± 810 nM; in the assay with HIV-1LAI E89G, > 30 µM. The Fold-resistance result in the assay with HIV-1LAI E89G is on record as “(>17.2)”.
On to `CCCCCCCCCCCCCCCCCCOC[C@H](COP(=O)(O)C(=O)O)OCC` [EB-PFA, 1-O-octadecyl-2-O-ethyl-sn-glycero-3-PFA], for which the EC50 in assay [1] (setting [2]) amounted to 220 nM; in assay [1] (setting [3]), 760 nM; in assay [1] (setting [4]), 650 ± 360 nM; in assay [1] (setting [5]), 700 ± 360 nM; in assay [1] (setting [6]), 650 ± 360 nM; in assay [1] (setting [7]) it was 90 nM. For the same compound, the EC50 in the assay with HIV-1LAI E89G was > 26.1 µM; with HIV-1LAI W88G/L214F (Example 6, recombinant virus W88G plus L214F, read-out: EC50) it was 9.1 µM. In addition, the Fold-resistance entry in the assay on HIV-1LAI E89G is given as “(>29.0)”. In addition, the Fold resistance in the assay on HIV-1LAI W88G/L214F (Example 6, recombinant virus W88G plus L214F) is 15.5 fold.
